# Activity calls are given as the source filed them. The rule behind the calls is not given here.
# Tested on: A2780
# Assay: Induction of apoptosis in human A2780 cells assessed as DNA fragmentation at IC90 after 24 hrs by DNA-laddering assay
# Type: functional, cell-based
# Conditions: not given
row,Structure (SMILES),Activity
1,C[C@H]1[C@H](C)CC[C@]2(C)CC[C@]3(C)C(=CC(=O)[C@@H]4[C@@]5(C)CC[C@H](N)[C@](C)(C(=O)O)[C@@H]5CC[C@]43C)[C@H]12,Active

# Tested on: not listed separately
# Assay: Cytotoxicity against human A253 cells assessed as cell survival after 96 hrs by SRB assay
# Type: functional, cell-based
# Conditions: A253, 96 h
row,Structure (SMILES),IC50
1,COC(=O)[C@@]1(C)C(=O)C(O)=C[C@]2(C)[C@H]3C(=O)C=C4[C@@H]5[C@@H](C)[C@H](C)CC[C@]5(C)CC[C@@]4(C)[C@]3(C)CC[C@@H]12,42.3 µM
2,CC(=O)O[C@@H]1CC[C@@]2(C)[C@@H](CC[C@]3(C)[C@@H]2C(=O)C=C2[C@@H]4[C@@H](C)[C@H](C)CC[C@]4(C)CC[C@]23C)[C@@]1(C)C(=O)O [AKBA],16.9 µM
3,C[C@H]1[C@H](C)CC[C@]2(C)CC[C@]3(C)C(=CC(=O)[C@@H]4[C@@]5(C)CC[C@@H](O)[C@](C)(C(=O)O)[C@@H]5CC[C@]43C)[C@H]12 [11-KETO BOSWELLIC ACID],45.9 µM
4,COC(=O)[C@@]1(C)/C(=N/O)CC[C@@]2(C)[C@H]1CC[C@]1(C)[C@@H]2C(=O)C=C2[C@@H]3[C@@H](C)[C@H](C)CC[C@]3(C)CC[C@]21C,15.5 µM
5,COC(=O)[C@@]1(C)C=CC[C@@]2(C)[C@H]1CC[C@]1(C)[C@@H]2C(=O)C=C2[C@@H]3[C@@H](C)[C@H](C)CC[C@]3(C)CC[C@]21C,40.2 µM
6,C[C@H]1[C@H](C)CC[C@]2(C)CC[C@]3(C)C(=CC(=O)[C@@H]4[C@@]5(C)CC[C@H](N)[C@](C)(C(=O)O)[C@@H]5CC[C@]43C)[C@H]12,5.6 µM
7,C[C@H]1[C@H](C)CC[C@]2(C)CC[C@]3(C)C(=CC(=O)[C@@H]4[C@@]5(C)CCC(=O)[C@@H](C)[C@@H]5CC[C@]43C)[C@H]12,39.4 µM
8,COC(=O)[C@]1(C)[C@@H]2CC[C@]3(C)[C@H](C(=O)C=C4[C@@H]5[C@@H](C)[C@H](C)CC[C@]5(C)CC[C@]43C)[C@@]2(C)CC1(O)C(=O)O (some centres not stated),54.9 µM
9,COC(=O)[C@@]1(C)[C@@H](C(=O)O)CC[C@@]2(C)[C@H]1CC[C@]1(C)[C@@H]2C(=O)C=C2[C@@H]3[C@@H](C)[C@H](C)CC[C@]3(C)CC[C@]21C,38.2 µM
10,C[C@H]1[C@H](C)CC[C@]2(C)CC[C@]3(C)C(=CC=C4[C@@]5(C)CC[C@@H](O)[C@](C)(CO)[C@@H]5CC[C@]43C)[C@H]12,18.1 µM

# Tested on: A2780
# Assay: Induction of apoptosis in human A2780 cells assessed as intact cell membrane at IC90 after 24 hrs by trypan blue exclusion assay
# Type: functional, cell-based
# Conditions: not given
row,Structure (SMILES),Activity
1,C[C@H]1[C@H](C)CC[C@]2(C)CC[C@]3(C)C(=CC(=O)[C@@H]4[C@@]5(C)CC[C@H](N)[C@](C)(C(=O)O)[C@@H]5CC[C@]43C)[C@H]12,Active

# Tested on: not listed separately
# Assay: Cytotoxicity against human DLD1 cells assessed as cell survival after 96 hrs by SRB assay
# Type: functional, cell-based
# Conditions: DLD-1, 96 h
row,Structure (SMILES),IC50
1,COC(=O)[C@@]1(C)C(=O)C(O)=C[C@]2(C)[C@H]3C(=O)C=C4[C@@H]5[C@@H](C)[C@H](C)CC[C@]5(C)CC[C@@]4(C)[C@]3(C)CC[C@@H]12,34.1 µM
2,CC(=O)O[C@@H]1CC[C@@]2(C)[C@@H](CC[C@]3(C)[C@@H]2C(=O)C=C2[C@@H]4[C@@H](C)[C@H](C)CC[C@]4(C)CC[C@]23C)[C@@]1(C)C(=O)O [AKBA],20.9 µM
3,C[C@H]1[C@H](C)CC[C@]2(C)CC[C@]3(C)C(=CC(=O)[C@@H]4[C@@]5(C)CC[C@@H](O)[C@](C)(C(=O)O)[C@@H]5CC[C@]43C)[C@H]12 [11-KETO BOSWELLIC ACID],57.7 µM
4,COC(=O)[C@@]1(C)/C(=N/O)CC[C@@]2(C)[C@H]1CC[C@]1(C)[C@@H]2C(=O)C=C2[C@@H]3[C@@H](C)[C@H](C)CC[C@]3(C)CC[C@]21C,13.7 µM
5,COC(=O)[C@@]1(C)C=CC[C@@]2(C)[C@H]1CC[C@]1(C)[C@@H]2C(=O)C=C2[C@@H]3[C@@H](C)[C@H](C)CC[C@]3(C)CC[C@]21C,32.9 µM
6,C[C@H]1[C@H](C)CC[C@]2(C)CC[C@]3(C)C(=CC(=O)[C@@H]4[C@@]5(C)CC[C@H](N)[C@](C)(C(=O)O)[C@@H]5CC[C@]43C)[C@H]12,9.9 µM
7,C[C@H]1[C@H](C)CC[C@]2(C)CC[C@]3(C)C(=CC(=O)[C@@H]4[C@@]5(C)CCC(=O)[C@@H](C)[C@@H]5CC[C@]43C)[C@H]12,57.3 µM
8,COC(=O)[C@]1(C)[C@@H]2CC[C@]3(C)[C@H](C(=O)C=C4[C@@H]5[C@@H](C)[C@H](C)CC[C@]5(C)CC[C@]43C)[C@@]2(C)CC1(O)C(=O)O (some centres not stated),56.1 µM
9,COC(=O)[C@@]1(C)[C@@H](C(=O)O)CC[C@@]2(C)[C@H]1CC[C@]1(C)[C@@H]2C(=O)C=C2[C@@H]3[C@@H](C)[C@H](C)CC[C@]3(C)CC[C@]21C,42.7 µM
10,C[C@H]1[C@H](C)CC[C@]2(C)CC[C@]3(C)C(=CC=C4[C@@]5(C)CC[C@@H](O)[C@](C)(CO)[C@@H]5CC[C@]43C)[C@H]12,19.5 µM

# Tested on: A2780
# Assay: Cytotoxicity against human A2780 cells assessed as cell survival after 96 hrs by SRB assay
# Type: functional, cell-based
# Conditions: A2780, 96 h
row,Structure (SMILES),IC50
1,COC(=O)[C@@]1(C)C(=O)C(O)=C[C@]2(C)[C@H]3C(=O)C=C4[C@@H]5[C@@H](C)[C@H](C)CC[C@]5(C)CC[C@@]4(C)[C@]3(C)CC[C@@H]12,41.1 µM
2,CC(=O)O[C@@H]1CC[C@@]2(C)[C@@H](CC[C@]3(C)[C@@H]2C(=O)C=C2[C@@H]4[C@@H](C)[C@H](C)CC[C@]4(C)CC[C@]23C)[C@@]1(C)C(=O)O [AKBA],14.1 µM
3,C[C@H]1[C@H](C)CC[C@]2(C)CC[C@]3(C)C(=CC(=O)[C@@H]4[C@@]5(C)CC[C@@H](O)[C@](C)(C(=O)O)[C@@H]5CC[C@]43C)[C@H]12 [11-KETO BOSWELLIC ACID],37.9 µM
4,COC(=O)[C@@]1(C)/C(=N/O)CC[C@@]2(C)[C@H]1CC[C@]1(C)[C@@H]2C(=O)C=C2[C@@H]3[C@@H](C)[C@H](C)CC[C@]3(C)CC[C@]21C,18 µM
5,COC(=O)[C@@]1(C)C=CC[C@@]2(C)[C@H]1CC[C@]1(C)[C@@H]2C(=O)C=C2[C@@H]3[C@@H](C)[C@H](C)CC[C@]3(C)CC[C@]21C,40.1 µM
6,C[C@H]1[C@H](C)CC[C@]2(C)CC[C@]3(C)C(=CC(=O)[C@@H]4[C@@]5(C)CC[C@H](N)[C@](C)(C(=O)O)[C@@H]5CC[C@]43C)[C@H]12,7.3 µM
7,C[C@H]1[C@H](C)CC[C@]2(C)CC[C@]3(C)C(=CC(=O)[C@@H]4[C@@]5(C)CCC(=O)[C@@H](C)[C@@H]5CC[C@]43C)[C@H]12,23.5 µM
8,COC(=O)[C@]1(C)[C@@H]2CC[C@]3(C)[C@H](C(=O)C=C4[C@@H]5[C@@H](C)[C@H](C)CC[C@]5(C)CC[C@]43C)[C@@]2(C)CC1(O)C(=O)O (some centres not stated),53.6 µM
9,COC(=O)[C@@]1(C)[C@@H](C(=O)O)CC[C@@]2(C)[C@H]1CC[C@]1(C)[C@@H]2C(=O)C=C2[C@@H]3[C@@H](C)[C@H](C)CC[C@]3(C)CC[C@]21C,35.4 µM
10,C[C@H]1[C@H](C)CC[C@]2(C)CC[C@]3(C)C(=CC=C4[C@@]5(C)CC[C@@H](O)[C@](C)(CO)[C@@H]5CC[C@]43C)[C@H]12,43.2 µM

# Tested on: not listed separately
# Assay: Cytotoxicity against human HCT8 cells assessed as cell survival after 96 hrs by SRB assay
# Type: functional, cell-based
# Conditions: HCT-8, 96 h
row,Structure (SMILES),IC50
1,COC(=O)[C@@]1(C)C(=O)C(O)=C[C@]2(C)[C@H]3C(=O)C=C4[C@@H]5[C@@H](C)[C@H](C)CC[C@]5(C)CC[C@@]4(C)[C@]3(C)CC[C@@H]12,39.7 µM
2,CC(=O)O[C@@H]1CC[C@@]2(C)[C@@H](CC[C@]3(C)[C@@H]2C(=O)C=C2[C@@H]4[C@@H](C)[C@H](C)CC[C@]4(C)CC[C@]23C)[C@@]1(C)C(=O)O [AKBA],17.5 µM
3,C[C@H]1[C@H](C)CC[C@]2(C)CC[C@]3(C)C(=CC(=O)[C@@H]4[C@@]5(C)CC[C@@H](O)[C@](C)(C(=O)O)[C@@H]5CC[C@]43C)[C@H]12 [11-KETO BOSWELLIC ACID],44.6 µM
4,COC(=O)[C@@]1(C)/C(=N/O)CC[C@@]2(C)[C@H]1CC[C@]1(C)[C@@H]2C(=O)C=C2[C@@H]3[C@@H](C)[C@H](C)CC[C@]3(C)CC[C@]21C,16.4 µM
5,COC(=O)[C@@]1(C)C=CC[C@@]2(C)[C@H]1CC[C@]1(C)[C@@H]2C(=O)C=C2[C@@H]3[C@@H](C)[C@H](C)CC[C@]3(C)CC[C@]21C,39.4 µM
6,C[C@H]1[C@H](C)CC[C@]2(C)CC[C@]3(C)C(=CC(=O)[C@@H]4[C@@]5(C)CC[C@H](N)[C@](C)(C(=O)O)[C@@H]5CC[C@]43C)[C@H]12,12.5 µM
7,C[C@H]1[C@H](C)CC[C@]2(C)CC[C@]3(C)C(=CC(=O)[C@@H]4[C@@]5(C)CCC(=O)[C@@H](C)[C@@H]5CC[C@]43C)[C@H]12,30.2 µM
8,COC(=O)[C@]1(C)[C@@H]2CC[C@]3(C)[C@H](C(=O)C=C4[C@@H]5[C@@H](C)[C@H](C)CC[C@]5(C)CC[C@]43C)[C@@]2(C)CC1(O)C(=O)O (some centres not stated),46.9 µM
9,COC(=O)[C@@]1(C)[C@@H](C(=O)O)CC[C@@]2(C)[C@H]1CC[C@]1(C)[C@@H]2C(=O)C=C2[C@@H]3[C@@H](C)[C@H](C)CC[C@]3(C)CC[C@]21C,41.7 µM
10,C[C@H]1[C@H](C)CC[C@]2(C)CC[C@]3(C)C(=CC=C4[C@@]5(C)CC[C@@H](O)[C@](C)(CO)[C@@H]5CC[C@]43C)[C@H]12,31.3 µM

# Tested on: HT-29
# Assay: Cytotoxicity against human HT-29 cells assessed as cell survival after 96 hrs by SRB assay
# Type: functional, cell-based
# Conditions: HT-29, 96 h
row,Structure (SMILES),IC50
1,COC(=O)[C@@]1(C)C(=O)C(O)=C[C@]2(C)[C@H]3C(=O)C=C4[C@@H]5[C@@H](C)[C@H](C)CC[C@]5(C)CC[C@@]4(C)[C@]3(C)CC[C@@H]12,29.9 µM
2,CC(=O)O[C@@H]1CC[C@@]2(C)[C@@H](CC[C@]3(C)[C@@H]2C(=O)C=C2[C@@H]4[C@@H](C)[C@H](C)CC[C@]4(C)CC[C@]23C)[C@@]1(C)C(=O)O [AKBA],19.4 µM
3,C[C@H]1[C@H](C)CC[C@]2(C)CC[C@]3(C)C(=CC(=O)[C@@H]4[C@@]5(C)CC[C@@H](O)[C@](C)(C(=O)O)[C@@H]5CC[C@]43C)[C@H]12 [11-KETO BOSWELLIC ACID],71.9 µM
4,COC(=O)[C@@]1(C)/C(=N/O)CC[C@@]2(C)[C@H]1CC[C@]1(C)[C@@H]2C(=O)C=C2[C@@H]3[C@@H](C)[C@H](C)CC[C@]3(C)CC[C@]21C,15.4 µM
5,COC(=O)[C@@]1(C)C=CC[C@@]2(C)[C@H]1CC[C@]1(C)[C@@H]2C(=O)C=C2[C@@H]3[C@@H](C)[C@H](C)CC[C@]3(C)CC[C@]21C,30.2 µM
6,C[C@H]1[C@H](C)CC[C@]2(C)CC[C@]3(C)C(=CC(=O)[C@@H]4[C@@]5(C)CC[C@H](N)[C@](C)(C(=O)O)[C@@H]5CC[C@]43C)[C@H]12,8.7 µM
7,C[C@H]1[C@H](C)CC[C@]2(C)CC[C@]3(C)C(=CC(=O)[C@@H]4[C@@]5(C)CCC(=O)[C@@H](C)[C@@H]5CC[C@]43C)[C@H]12,28.2 µM
8,COC(=O)[C@]1(C)[C@@H]2CC[C@]3(C)[C@H](C(=O)C=C4[C@@H]5[C@@H](C)[C@H](C)CC[C@]5(C)CC[C@]43C)[C@@]2(C)CC1(O)C(=O)O (some centres not stated),51.4 µM
9,COC(=O)[C@@]1(C)[C@@H](C(=O)O)CC[C@@]2(C)[C@H]1CC[C@]1(C)[C@@H]2C(=O)C=C2[C@@H]3[C@@H](C)[C@H](C)CC[C@]3(C)CC[C@]21C,34.1 µM
10,C[C@H]1[C@H](C)CC[C@]2(C)CC[C@]3(C)C(=CC=C4[C@@]5(C)CC[C@@H](O)[C@](C)(CO)[C@@H]5CC[C@]43C)[C@H]12,23.9 µM

# Source: ChEMBL document CHEMBL3407364, “Synthesis and antitumor activity of ring A modified 11-keto-β-boswellic acid derivatives” (Eur J Med Chem, 2015)
